Experimental data: PubChem BioAssay (NCI)
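Results reflect a 48-hour exposure of cells in 96-well plates to compound at five concentrations. Abbreviation: GI50, concentration required for 50% inhibition of growth. Definition used: TGI = concentration required for complete inhibition of growth.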

Tests used:
Assay in all cases: NCI-60 cell line screen, 48 h
RPMI-8226 leukemia = test system: RPMI-8226 leukemia
EKVX NSCLC = test system: EKVX NSCLC
IGROV1 ovarian = test system: IGROV1 ovarian
DU-145 prostate = test system: DU-145 prostate
UACC-257 melanoma = test system: UACC-257 melanoma
HL-60(TB) leukemia = test system: HL-60(TB) leukemia
HCT-15 colon = test system: HCT-15 colon
NCI-H23 lung = test system: NCI-H23 lung
MDA-MB-435 = test system: MDA-MB-435
SK-OV-3 ovarian = test system: SK-OV-3 ovarian

SMILES | TGI (RPMI-8226 leukemia) | TGI (EKVX NSCLC) | TGI (IGROV1 ovarian) | TGI (DU-145 prostate) | TGI (UACC-257 melanoma) | TGI (HL-60(TB) leukemia) | TGI (HCT-15 colon) | TGI (NCI-H23 lung) | TGI (MDA-MB-435) | TGI (SK-OV-3 ovarian) | GI50 (RPMI-8226 leukemia) | GI50 (EKVX NSCLC) | GI50 (IGROV1 ovarian) | GI50 (DU-145 prostate) | GI50 (UACC-257 melanoma) | GI50 (HL-60(TB) leukemia) | GI50 (HCT-15 colon) | GI50 (NCI-H23 lung) | GI50 (MDA-MB-435) | GI50 (SK-OV-3 ovarian)
CCc1nc(N)nc(N)c1-c1ccc(Cl)c(N=CN(C)C)c1 | > 100 µM | > 100 µM | > 100 µM | > 100 µM | > 100 µM | > 90.3 µM | > 100 µM | > 81.5 µM | > 100 µM | > 100 µM | – | – | – | – | – | – | – | – | – | –
O=C(Nc1ccc(I)cc1F)c1cc(Cl)ccc1O | 1.28 µM | 6.81 µM | > 100 µM | > 100 µM | 3.99 µM | 3.27 µM | 10.7 µM | 3.79 µM | 4.9 µM | 2.64 µM | 280 nM | 1030 nM | 0.36 µM | 681 nM | 467 nM | 441 nM | 554 nM | 386 nM | 583 nM | 0.615 µM
CC1=C(/C=C/C(C)=C/C=C/C(C)=C/CO)C(C)(C)CCC1 | – | > 100 µM | 57.7 µM | > 100 µM | 84.4 µM | 45.3 µM | > 100 µM | 54.8 µM | 62.4 µM | > 100 µM | – | – | – | – | – | – | – | – | – | –
CO[C@H]1CC(c2ccc[nH]2)=N[C@]12O[C@@H](C)C[C@@H]1CCCCCCCc3ccc([nH]3)[C@H]12 | 2.96 µM | 7.3 µM | 10.8 µM | > 23.1 µM | 7.63 µM | 4.97 µM | 8.51 µM | 8.03 µM | 4.29 µM | 18.9 µM | 693 nM | 975 nM | 1.38 µM | 1490 nM | 1330 nM | 1240 nM | 851 nM | 1210 nM | 1100 nM | 4.41 µM
O=C1OC(c2ccccc2)=N/C1=C\c1cccc(F)c1 | 50.1 µM | > 100 µM | > 100 µM | > 100 µM | 88.2 µM | 61.2 µM | > 100 µM | > 100 µM | > 100 µM | > 100 µM | – | – | – | – | – | – | – | – | – | –
COc1cc(/C=C/C(=O)c2cccnc2Nc2ccc(F)cc2)cc(OC)c1OC | 8.07 µM | > 100 µM | 50.3 µM | 12.4 µM | 21.6 µM | 7.15 µM | 5.95 µM | 7.77 µM | 69.3 µM | 8.67 µM | 2430 nM | 3940 nM | 7.42 µM | 3320 nM | 2900 nM | 2400 nM | 2280 nM | 2340 nM | 3050 nM | 3.1 µM
C=C1[C@@H]([C@@]2(C)C=CC(=O)C(C)(C)[C@@H]2CC(=O)OC)CC[C@@]2(C)C(c3ccoc3)OC(=O)[C@H]3O[C@]132 (stereo partly specified) | – | > 100 µM | > 100 µM | > 100 µM | > 100 µM | > 100 µM | > 100 µM | > 100 µM | > 100 µM | > 100 µM | – | – | – | – | – | – | – | – | – | –
COc1ccc(Nc2c3ccccc3nc3[nH]c4ccccc4c23)cc1 | 33.4 µM | > 50 µM | > 50 µM | 33.9 µM | > 50 µM | > 50 µM | > 50 µM | > 50 µM | > 50 µM | – | 2330 nM | 10900 nM | 16.9 µM | 6470 nM | 21200 nM | 4980 nM | 8330 nM | > 50000 nM | 8920 nM | –
